Results as given in US20260274876A1, “3-PYRROLIDINE-INDOLE DIMERS AS SEROTONERGIC AGENTS USEFUL FOR THE TREATMENT OF DISORDERS RELATED THERETO” (MINDSET PHARMA INC., priority 2022, published 2026).
Where two headings read alike, the source gives them in different places.

Key:
human 5-HT2A receptor [1] = target: T1, human 5-HT2A receptor (Homo sapiens, UniProt P28223); experiment: Human 5-HT2A radioligand binding assay ([3H]-ketanserin)
Protocol: The objective of this study was to evaluate the binding properties of exemplary compounds of Formula I on 5-hydroxytryptamine receptor 2A (5-HT2A).
• 1. The assay buffer was prepared following the table below.
• 2. 8 doses of reference and test compounds starting from 10 mM stock solution as required was prepared by 5-fold serial dilutions with 100% (v/v) DMSO. • 3. UniFilter-96 GF/B plate was pretreated: • i. 50 μl/well of 0.5% (v/v) PEI was added to […]. The plates were sealed and incubated at […] for 3 hrs. • ii. After incubation, the plates were washed 3 times with ice-cold wash buffer (50 mM Tris, pH7.4). • 4. The assay plate was prepared: • i. Cell membrane was diluted with assay buffer and 330 μl/well was added to 96 round deep well plates to reach a concentration of 20 μg/well. • ii. 8 concentrations of reference or test compounds were prepared and 110 μl/well was added to 96 round deep well plates. • iii. [3H]-ketanserin was diluted with assay buffer to 5 nM (5×final concentration) and 110 μl/well was added to 96 round deep well plates. • 5. The plate was centrifuged at 1000 rpm for 30 secs and then agitated at 600 rpm, R.T. for 5 min. • 6. The plates were sealed and the plate incubated at 279C for 90 min. • 7. The incubation was stopped by vacuum filtration onto GF/B filter plates followed by 4 times washing with ice-cold wash buffer (50 mM Tris, pH7.4). • 8. The plates were dried at 379C for 45 min. • 8. The filter plates were sealed and 40 μl/well of scintillation cocktail was added. • 10. The plate was read by using a Microbeta^2 microplate counter.
• 1. For reference and test compounds, the results were expressed as % Inhibition, using the normalization equation: N=100−100×(U−C2)/(C1−C2), where U is the unknown value, C1 is the average of high controls, and C2 is the average of low controls. • 2. The IC50 was determined by fitting percentage of inhibition as a function of compound concentrations with Hill equation using XLfit.

[2] = Liver microsomes stability, rat; conditions: for half-life at 2 μM / microsomal CLint at 2 μM: male, rat; for half-life at 2 μM / microsomal CLint at 2 μM / Remaining Percentage (%) after 60 min, Rat, With cofactors / Remaining Percentage (%) after 60 min, Rat, Without cofactors: rat liver microsomes
Protocol: 40 μL of 10 mM NADPH solution was added to each well. The final concentration of NADPH was 1 mM. The negative control samples were prepared by replacing NADPH with 40 μL of ultra-pure H2O. Samples were prepared in duplicate. Negative controls were prepared in singlet.
This study was performed in duplicate.
LC/MS analysis was performed for all samples from this study using a Shimadzu liquid chromatograph separation system equipped with degasser DGU-20A5R; solvent delivery unit LC-30AD; system controller SIL-30AC; column oven CTO-30A; CTC Analytics HTC PAL System. Mass spectrometric analysis was performed using a Triple Quad™ 5500 instrument.
All calculations were carried out using Microsoft Excel.
All calculations were carried out using Microsoft Excel. Peak areas were determined from extracted ion chromatograms.

human 5-HT2A receptor [3] = target: T1, human 5-HT2A receptor; experiment: Human 5-HT2A functional FLIPR assay (agonist mode); assay type: cell-based; design: expressed in transfected cells; conditions: for RFU@10 μM: FLIPR, h5-HT2A, curve fitting with activation (%) @ 10 mM with RFU (footnote)
Protocol: The potential excitatory effects of compounds targeting on human 5-hydroxytryptamine receptor 2A (5-HT2A) under agonist mode was assessed.
HTR2A&Gα15-HEK293 cells were cultured in DMEM medium containing 10% dialyzed FBS and 1×penicillin-streptomycin, 100 μg/mL Hygromycin B and 300 μg/mL G418. The cells were passaged about three times a week, maintained between ~30% to ~90% confluence.
• 1. The cell culture medium (DMEM medium containing 10% dialyzed FBS and 1×penicillin-streptomycin, 100 μg/mL Hygromycin B and 300 μg/mL G418), TrypLE™ Express and DPBS to R.T. was warmed in advance. • 2. For induction, 1 μg/ml tetracycline (final concentration) was added to cell culture medium and incubated for 48 hours prior to seeding cells into plate at 37° C., 5% (v/v) CO2. The cell culture medium was removed from flask. Cells were washed with DPBS. • 3. 2 mL TrypLE™ Express was added to the flask, mixed well by gentle shaking and cells were incubated at 37° C. for a few minutes. • 4. The cells were checked for morphological change under microscope, the digestion was stopped by adding 4 mL cell culture medium to the flask when most of cells turned to round. • 5. The cell suspension was transferred into a 15 mL centrifuge tube, and then centrifuged at 1,200 rpm for 5 minutes. • 6. The supernatant was removed. The cell pellet was resuspended with 2 mL cell culture medium. • 7. The cell density was counted using cell counter. Only cells with >85% viability were used for the assay. • 8. Cells were diluted to 6.67×10^5/mL with cell culture medium. • 9. 30 μL/well cell suspensions added into a 384-well cell plate (The cell density was 20,000 cells/well). • 10. The cell plate was incubated overnight at 37° C., 5% (v/v) CO2.
On the day of experiments, culture medium was removed from the cell plate.
10 μL of assay buffer (20 mM HEPES, in 1×HBSS, pH 7.4) was added to each well of the cell plate.
2×dye solution was prepared following the manual of the FLIPR® Calcium 6 Assay Kit: • i. The dye was diluted with assay buffer. • ii. Probenecid was added to the final concentration of 5 mM. • iii. Vortexed vigorously for 1-2 minutes. • 4. 10 μL of 2×dye solution was added to each well of the cell plate • 5. The cell plate was placed on plate shaker, followed by shaking at 600 rpm for 2 minutes. • 6. The plate was incubated at 37° C. for 2 hours followed by an additional 15-minute incubation at 25° C. 2.4 Prepare 3×compound • 1. Serotonin HCl was prepared to the concentration of 10 mM with DMSO. • 2. The test compounds were prepared to the concentration of 10 mM with DMSO. • 3. The compounds were added to a 384-well compound source plate. • 4. 3-folds serial dilutions were performed with DMSO. • 5. 90 nL/well of serial diluted compounds was transferred from source plate to a 384-well compound plate by using an Echo. • 6. 30 μL/well of assay buffer (20 mM HEPES in 1×HBSS, pH 7.4) was added to the compound plate. • 7. The plate was mixed on-plate shaker for 2 minutes.
• 1. After the cells were incubated with dye solution, the cell plate, compound plate containing 3×compounds and FLIPR tips were placed into FLIPR. • 2. 10 μL of 3×compounds transferred from the compound plate to the cell plate by FLIPR. • 3. The plate was read for 160 sec with 1 sec interval and the data of agonist mode was obtained.
• 1. The normalized fluorescence reading (RFU) was calculated as shown below, wherein Fmax and Fmin stand for maximum and minimum of calcium signal during defined time window:
[formula] • 2. EC50 by fitting RFU against log of compound concentrations with Hill equation was calculated using XLfit.

[4] = FLIPR agonist mode, HTR2A&Gα15-HEK293 cells, ND: not detected, read-out: h5-HT2A, EC50

T1 sequence (P28223 whole entry): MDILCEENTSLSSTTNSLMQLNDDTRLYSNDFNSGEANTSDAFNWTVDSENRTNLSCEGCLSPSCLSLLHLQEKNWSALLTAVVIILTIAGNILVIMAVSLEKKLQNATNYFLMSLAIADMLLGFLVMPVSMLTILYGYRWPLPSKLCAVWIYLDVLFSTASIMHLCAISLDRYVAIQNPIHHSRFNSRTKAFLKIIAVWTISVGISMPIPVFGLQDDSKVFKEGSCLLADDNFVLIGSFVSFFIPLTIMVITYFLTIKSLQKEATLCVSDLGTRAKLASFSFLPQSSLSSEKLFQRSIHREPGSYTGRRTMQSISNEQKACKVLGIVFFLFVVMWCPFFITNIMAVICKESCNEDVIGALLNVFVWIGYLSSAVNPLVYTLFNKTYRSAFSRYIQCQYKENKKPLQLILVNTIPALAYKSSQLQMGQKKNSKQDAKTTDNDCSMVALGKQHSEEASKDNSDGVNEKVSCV

SMILES	IC50 (human 5-HT2A receptor [1]) [nM]	half-life at 2 μM [2] [min]	microsomal CLint at 2 μM [2] [µL/min/mg]	Remaining Percentage (%) after 60 min, Rat, With cofactors [2] [%]	Remaining Percentage (%) after 60 min, Rat, Without cofactors [2] [%]	EC50 (human 5-HT2A receptor [3]; [4]) [nM]	RFU@10 μM (human 5-HT2A receptor [3]) [RFU]	EC50 (human 5-HT2A receptor [3]) [nM]	t1/2 Rat ([2]; rat liver microsomes with NADPH, 2 μM) [min]
[2H]C([2H])(c1c[nH]c2cccc(OC(=O)CCCC(=O)Oc3cccc4[nH]cc(C([2H])([2H])[C@H]5CCCN5C([2H])([2H])[2H])c34)c12)[C@H]1CCCN1C([2H])([2H])[2H] [Compound I-22, bis(3-(((R)-1-(methyl-d3)pyrrolidin-2-yl)methyl-d2)-1H-indol-4-yl) glutarate]	44.8	< 4.51	> 307	0	0.22	13.1	5409	–	–
CN1CCC[C@@H]1Cc1c[nH]c2cccc(O)c12 [Compound 10, (R)-3-((1-methylpyrrolidin-2-yl)methyl)-1H-indol-4-ol]	219	–	–	–	–	–	2929	47	–
[2H]C([2H])(c1c[nH]c2cccc(O)c12)[C@H]1CCCN1C([2H])([2H])[2H] [Compound 13, (R)-3-((1-(methyl-d3)pyrrolidin-2-yl)methyl-d2)-1H-indol-4-ol]	219	–	–	–	–	–	3108	44	–
CN(C)CCc1c[nH]c2cccc(O)c12 [Psilocin, 4-hydroxy-N,N-dimethyltryptamine, reference compound]	–	–	–	62.68	–	–	308	–	89.01
CN1CCC[C@@H]1Cc1c[nH]c2cccc(OC(=O)CCCC(=O)Oc3cccc4[nH]cc(C[C@H]5CCCN5C)c34)c12 [Compound I-13, Bis(3-(((R)-1-methylpyrrolidin-2-yl)methyl)-1H-indol-4-yl) glutarate]	37	< 4.51	> 307	0	0	32.3	3887	–	–
